Series [1] deals with Candida albicans strain # 64. The series can be described thus: In vivo efficacy against fluconazole-sensitive candidiasis in mice. Set-up: species or system ICR mice infected with Candida albicans. The protocol:
Immunocompetent mice (ICR, Sprague-Dawley, Indianapolis, IN) were infected with a pathogenic strain (# 64) of Candida albicans which is sensitive to fluconazole. After 24 hours, dissemination of infection was shown by organ colony counts (kidney, spleen, and liver) greater than 10^5 CFU. Treatment began 24 hours after infection with the indicated dosage once a day for 10 days. One group received 20 mg/kg of the compound administered via oral gavage in 0.1 mL. The test compound was formulated in 40% polyethyleneglycol (MW 400). Another group received 40 mg/kg of th compound, administered as above. A third group received polyethylene glycol, and the last group received fluconazole dosed orally at 40 mg/kg twice a day.
After 30 days the percent survival in the group treated with fluconazole and the group treated with test compound (40 mg per kg body weight, twice a day) was measured. In addition, the organ fungal load was measured at days 1, 10, and 30.

Series [2] deals with C. albicans. In words: Inhibition of Candida spp. culture (broth microdilution, XTT). The class given is cell-based, Candida albicans (strain ATCC #90028). The conditions noted are these: for minimum inhibitory concentration (MIC) for known antifungal agents: assay validation, result in words. The procedure:
(§1) Formulae (i) was isolated as described in Example 1. Plant material was collected in Zimbabwe. A voucher specimen is deposited at the Institute of Pharmacognosy and Phytochemistry, University of Lausanne, Lausanne, Switzerland. Antimicrobial assays are performed by a modification of the broth microdilution susceptibility assay using the tetrazolium salt XTT (Examples 2-6, see summary of results in Table 1 below).
(§2) Candida albicans (strain ATCC #90028), Candida krusei (strain ATCC #90030), and Torulopsis (Candida) glabrata (strain ATCC #6258) were subcultured from cryopreserved stocks onto sabourand dextrose agar plates. Blastoconidia were suspended into RPMI-MOPS (media) and inoculated (500 CFW/well) into 96-well plates containing test compounds in a final volume of 100 μL/well. After 22 hours at 35° C., 25 μL of XTT (2,3-bis(2-methoxy-4-nitro-5-sulfophenyl)-5-[(phenylamino)carbonyl]-2H-tetrazolium hydroxide), (100 μg/mL) with PMS (phenazine methyl sulfate, 5 μM) were added to each well, followed by 2 hours of shaking. Growth was assessed spectrophotometrically by measuring the appearance of soluble formazan stain at 450 nm using an Emax microplate reader.

The subject of series [3] is S. aureus. The series can be described thus: Inhibition of Staphylococcus aureus culture. The class given is cell-based. The following applies: 24 hours at 35° C. The protocol:
as §1
Strains of Staphylococcus aureus were subcultured from cryopreserved stocks onto sheep blood agar plates (methicillin-sensitive reference strain ATCC #29213. Methicillin-resistant (MRSA) clinical isolate was obtained from Dr. Gary Doern, Director of Clinical Microbiology, University of Massachusetts Medical Center, Worcester, Mass.). Bacteria were suspended in Mueller Hinton broth and inoculated (5×10^4 CFU/well) into 96-well plates containing test compounds in a final volume of 100 μL/well. After 24 hours at 35° C., plates were shaken for 1 minute and turbidity was read manually at 650 nm using a Emax microplate reader (Molecular Devices, Sunnyvale, Calif. The MIC values of vancomycin and gentamicin in this screening assay are determined to be approximately 1 μg/mL and 0.6 μg/mL, respectively, well within the reported ranges (National Committee on Clinical Laboratory Standards Vol. 14, No. 16, 1994, Table 3).

The subject of series [4] is A. fumigatus. The series can be described thus: Inhibition of Aspergillus spp. culture (broth microdilution, XTT). It is filed as cell-based, Aspergillus fumigatus (strain ATCC#8001). The conditions noted are these: 48 hours at 37° C. The procedure: as §1
Aspergillus fumigatus (strain ATCC#8001) was subcultured from a refrigerated potato dextrose agar slant (immersed in mineral oil) onto a fresh potato dextrose agar slant. After 72 hours of incubation at 37° C., the slants were filled with 7 mL sterile, cold, distilled water and put on ice for 2 hours. After disrupting the tissue, spores were filtered through sterile gauze using a 30 cc syringe. The resulting mixture was centrifuged for 10 minutes at 2,000 rpm. The supernatant was discarded and the pellet was resuspended in 5 mL sterile, distilled water. […] Growth was assessed spectrophotometrically by measuring the appearance of soluble formazan stain at 450/650 nm using an Emax micro plate reader. Validation of the assay was confirmed by determination of the A. fumigatus minimum inhibitory concentration (MIC) for amphotericin B. MICs were also scored visually.

Series [5] deals with C. krusei. The series can be described thus: Inhibition of Candida spp. culture (broth microdilution, XTT). The conditions noted are these: Pichia kudriavzevii, 22 hours at 35° C. It is filed as cell-based, Candida krusei (strain ATCC #90030). The procedure:
as §1, §2

The subject of series [6] is T. glabrata. The series is described as above. The conditions noted are these: Nakaseomyces glabratus, 22 hours at 35° C. It is filed as cell-based, Torulopsis (Candida) glabrata (strain ATCC #6258). The protocol:
as §1, §2

Series [7] can be described thus: Vero cell proliferation. The conditions noted are these: monkey, vero cells; read-out: IC50 (Vero cell proliferation). The class given is cell-based. An excerpt: Formula (ii) compounds are those compounds of formula (I) wherein R13 is --O--bonded to R14 and R14 is --CHORa --, Ra being hydrogen, C1-4 alkyl, or formula (a). Formula (ii) compounds may be obtained according to Example 7. […] In general, inhibition of a microbial infection means inhibiting microbial growth, relative to an untreated control, by at least 30%, and preferably by 50% or 75%. Cytotoxicity assays utilized the same dye as a marker of cell viability.

Series [8] deals with Epidermophyton floccosum. In words: Inhibition of dermatophytes. The class given is cell-based. The conditions noted are these: E. floccosum, 96 hours, 1 isolate. The procedure: (§3) The in vitro activity of formula (I) against the dermatophytes Trichophyton rubrum, Trichophyton mentagrophytes, and Epidermophyton floccosum was measured. The data were collected after incubating for 96 hours.

Series [9] has as its system Trichophyton mentagrophytes. In words: Inhibition of dermatophytes. It is filed as cell-based. The conditions noted are these: T. mentagrophytes, 96 hours, 13 isolates. The procedure: as §3
Series [10] concerns Trichophyton rubrum. In words: Inhibition of dermatophytes. The conditions noted are these: T. rubrum, 96 hours, 10 isolates. The class given is cell-based. The protocol: as §3
The mark [11] stands for this setting: Candida albicans, 22 hours at 35° C.
Setting [12] is: Staphylococcus aureus, read-out: MIC.

In brackets after ≈: the same amount, converted by molar mass. Read-outs that look alike come from different tables or passages of the source.

For `CC1=C(CCO)C(=O)C(O)=C2C1=CC(=O)[C@H]1C(C)(C)CCC[C@]21C` (relative stereo) [test compound], in series [1] (20 and 40 mg/kg oral gavage), the “dose response of the effect” value is listed as “dose-responsive”. In addition, in series [1] (after 10 days, either concentration of the test compound, vs mice treated with fluconazole), the “fungal organ burdens in the kidney, liver, and spleen” value is “less than or equal to one half the burdens in the same organs of mice treated with fluconazole”. The compound also yielded a median survival in series [1] (oral gavage once a day for 10 days, vehicle control 7 days, p=0.0018 log rank test) of 17.5 days.
Turning to `OC(Cn1cncn1)(Cn1cncn1)c1ccc(F)cc1F` [fluconazole], the “minimum inhibitory concentration (MIC) for known antifungal agents” value (“minimum inhibitory concentration (MIC)” for short) in series [2] is recorded as “within reported ranges”.
The same measure, in the same setting: in the case of `NC(=O)OC[C@H](O)[C@@H](O)[C@H](N)C(=O)N[C@H](C(=O)O)[C@H]1O[C@@H](n2cc(C(=O)O)c(=O)[nH]c2=O)[C@H](O)[C@@H]1O` [polyoxin D] it was “within reported ranges”; in that of `C[C@@H]([C@H](N)C(=O)N[C@H](C(=O)O)[C@H]1O[C@@H](n2ccc(=O)[nH]c2=O)[C@H](O)[C@@H]1O)[C@H](O)c1ccc(O)cn1` [nikkomycin Z], “within reported ranges”.
For the compound `Nc1nc(=O)[nH]cc1F` [5-flucytosine], in series [2], the “minimum inhibitory concentration (MIC)” value is reported as “within reported ranges”.
As to `C[C@@H]1[C@H](O)[C@@H](C)/C=C/C=C/C=C/C=C/C=C/C=C/C=C/[C@H](O[C@@H]2O[C@H](C)[C@@H](O)[C@H](N)[C@@H]2O)C[C@@H]2O[C@](O)(C[C@@H](O)C[C@@H](O)[C@H](O)CC[C@@H](O)C[C@@H](O)CC(=O)O[C@H]1C)C[C@H](O)[C@H]2C(=O)O` [amphotericin B], the “minimum inhibitory concentration (MIC)” value in series [2] is reported as “within reported ranges”.
Consider gentamicin, for which, in [3], the MIC was approximately 0.6 µg/mL.
Take `CC1=C(CCO)C(=O)C(O)=C2C1=CC(=O)[C@@H]1C(C)(C)CCC[C@@]21C` (relative stereo) [Formula (i), (4bR*,8aR*)-4b,5,6,7,8,8a-hexahydro-4-hydroxy-4b,8,8,1-tetramethyl-2-(2-hydroxy-ethyl) -3,9-phenanthrenedione]: the IC50 in series [4] stood at 6.49 µg/mL; in series [5] it was 0.55 µg/mL; in series [6], 0.44 µg/mL; in series [2] (setting [11]) it was 0.12 µg/mL. Besides, the MIC in series [4] was 6.25 µg/mL; in [5], 1.56 µg/mL; in [6] it was 1.65 µg/mL; in series [2] (setting [11]), 0.78 µg/mL; in series [3] (setting [12]), 1.56 µg/mL; in [8], 4 µg/mL. For the same compound, the MIC is 0.5 to 8 µg/mL in series [9] (read-out: MIC range), 2.7 µg/mL in [9] (read-out: average MIC), 2 to 8 µg/mL in series [10] (read-out: MIC range) and 5 µg/mL in series [10] (read-out: average MIC). Besides, in series [7], the CC50 was 12.7 µg/mL.
For `CN[C@H](CC(C)C)C(=O)N[C@H]1C(=O)N[C@@H](CC(N)=O)C(=O)N[C@H]2C(=O)N[C@H]3C(=O)N[C@H](C(=O)N[C@H](C(=O)O)c4cc(O)cc(O)c4-c4cc3ccc4O)[C@H](O)c3ccc(c(Cl)c3)Oc3cc2cc(c3O[C@@H]2O[C@H](CO)[C@@H](O)[C@H](O)[C@H]2O[C@H]2C[C@](C)(N)[C@H](O)[C@H](C)O2)Oc2ccc(cc2Cl)[C@H]1O` [vancomycin], the MIC in series [3] (setting [12]) was approximately 1 µg/mL (≈ 0.69 µM).
